Patent publication US9877981B2, “NAD biosynthesis and precursors for the treatment and prevention of cancer and proliferation” (President and Fellows of Harvard College, priority 2012, dated 2018)
Entries after “also recorded” stand apart in the source; their conditions may differ.

Assays:
Assay type in all cases: in vivo
[1] = system: mitochondrial-encoded genes (ND1, Cytb, COX1 and ATP6); experiment: qPCR of mitochondrial-encoded genes in gastrocnemius of treated mice
Text: (§1) C57BL/6J mice of 6, 22, or 30 months of age were obtained from the National Institutes of Aging mouse aging colony. Additionally 22 months old caloric restricted mice were also obtained from the National Institutes of Aging mouse aging colony. EGLN1 KO, SIRT1 KO and SIRT1 OE mice were generated as previously described (Minamishima et al., 2008; Price et al., 2012). Mice were acclimated for at least one-week prior to sacrifice. 3, 6, 22 and 24-month-old mice were given interperitoneal (IP) injections of 500 mg NMN/kg body weight per day or the equivalent volume of PBS for 7 consecutive days at 5:00 pm and 7:00 am on day 8 and sacrificed 4 hr after last injection.
(§2) Whole body SIRT1 overexpressor (SIRT1-tg) mice of 6 months of age were given interperitoneal (IP) injections of 300 mg DMOG/kg body weight per day or the equivalent volume of PBS for 5 consecutive days.
(§3) Whole body adult-inducible Egln1 knockout mice (Minamishima et al, 2007) were treated with IP injection of tamoxifen for 3 days after which they were allowed to rest. The mice were given interperitoneal (IP) injections of 500 mg NMN/kg body weight per day or the equivalent volume of PBS for 7 consecutive days at 5:00 pm and 7:00 am on day 8 and sacrificed 4 hr after last injection. All animal studies followed the guidelines of and were approved by the Harvard Institutional Animal Care and Use Committee.
RNA from skeletal muscle tissue and C2C12 cells were extracted with RNeasy mini kit (Qiagen) according to the instructions and quantified using the NanoDrop 1000 spectrophotometer (Thermo Scientific). cDNA was synthesized with the iSCRIP cDNA synthesis kit (BioRad) using 600 ng of RNA. Quantitative RT-PCR reactions were performed using 1 μM of primers and LightCycler® 480 SYBR Green Master (Roche) on an LightCycler® 480 detection system (Roche). Calculations were performed by a comparative method (2-ΔCT) using 18S as an internal control. For mtDNA analysis, total DNA was extracted with DNeasy blood and tissue kit (Qiagen). mtDNA was amplified using primers specific for the mitochondrial cytochrome c oxidase subunit 2 (COX2) gene and normalized to genomic DNA by amplification of the ribosomal protein s18 (rps18) nuclear gene. Primers were designed using the IDT software (IDT) and the primer sequences can be found in Table 1.
RNA from skeletal muscle and aorta were extracted with RNeasy mini kit (Qiagen) according to the instructions and quantified using the NanoDrop 1000 spectrophotometer (Thermo Scientific). cDNA was synthesized with the iSCRIP cDNA synthesis kit (BioRad) using 600 ng of RNA. Quantitative RT-PCR reactions were performed using 1 μM of primers and LightCycler® 480 SYBR Green Master (Roche) on an LightCycler® 480 detection system (Roche). […]

[2] = system: skeletal muscle mitochondria; experiment: Mitochondrial function in skeletal muscle of treated mice (membrane potential, ATP content, COX activity)
Procedure: (§4) C57BL/6J mice of 3, 6, 22, 24, or 30 months of age were obtained from the National Institutes of Aging mouse aging colony. Mice were acclimated for at least one-week prior to sacrifice. 3, and 24-month-old mice were given interperitoneal (IP) injections of 500 mg NMN/kg body weight per day or the equivalent volume of PBS for 7 consecutive days at 5:00 pm and 7:00 am on day 8 and sacrificed 4 hr after last injection. All animal studies followed the guidelines of and were approved by the Harvard Institutional Animal Care and Use Committee
Skeletal muscle mitochondria were isolated as described previously (Frezza et al., Nat. Protoc. 2:287-295 (2007)). Mitochondrial membrane potential, cytochrome c activity and succinate dehydrogenase were determined as described (Brautigan et al., Methods Enzymol. 53:128-164 (1978); Rolo et al., Biochim. Biophys. Acta. 1637:127-132 ([…]); Singer, T. P., Methods Biochem. Anal. 22:123-175 (1974)). ATP content was measured with a commercial kit according to the manufacturer's instructions (Roche).
as §1, §2, §3
Cytochrome c oxidase activity was polarographically determined based on the O2 consumption upon cytochrome c oxidation, as previously described (Brautigan et al., 1978). The reaction was carried out at 25° C. in 1.3 mL of standard respiratory medium (as in mitochondrial respiration) supplemented with 2 μM rotenone, 10 μM oxidized cytochrome c, 0.3 mg TritonX-100. Following addition of the sample, the reaction was initiated by adding 5 mM ascorbate plus 0.25 mM tetramethylphenylene-diamine (TMPD).
ATP content was measured with a commercial kit according to the manufacturer's instructions (Roche).

HIF-1α = experiment: Immunoblot for HIF-1α in gastrocnemius of treated mice
Procedure: as §4
C57BL/6J mice of 6, 22, or 30 months of age were obtained from the National Institutes of Aging mouse aging colony. Additionally 22 months old caloric restricted mice were also obtained from the National Institutes of Aging mouse aging colony. EGLN1 KO, SIRT1 KO and SIRT1 OE mice were generated as previously described (Minamishima et al., 2008; Price et al., 2012). Mice were acclimated for at least one-week prior to sacrifice. […]
(§5) Protein extracts from tissue or C2C12 cells were obtained by lysis in ice-cold lysis buffer (150 mM NaCl, 10 mM Tris HCl (pH 7.4), 1 mM EDTA, 1 mM EGTA, 1% Triton X-100, 0.5% NP-40) supplemented with a cocktail of protease and phosphatase inhibitors (Roche). Protein content was determined by the Bradford protein assay (Biorad), and 50 μg proteins were run on SDS-PAGE under reducing conditions. […] The immunostaining was detected using horseradish peroxidase-conjugated anti-rabbit or anti-mouse immunoglobulin for 1 h at room temperature.
as §5, with “tissue” for “tissue or C2C12 cells”

[3] = SIRT1-tg mice, DMOG 300 mg/kg IP per day, 5 days, gastrocnemius
[4] = Egln1 KO mice treated with NMN 500 mg/kg IP 7 days, compared to WT controls
[5] = treated 24-month-old mice, NMN 500 mg/kg IP one week, skeletal muscle

SMILES	increase in expression of mitochondrial-encoded genes observed in SIRT1-tg mice [1, 3]	increase in ATP levels observed in SIRT1-tg mice [2, 3]	HIF-1α protein (HIF-1α; SIRT1-tg mice, DMOG 300 mg/kg IP per day, 5 days)	expression of mitochondrial-encoded genes ([1]; 22-month-old mice, NMN one week, gastrocnemius)	mitochondrial-encoded genes in skeletal muscle [1, 4]	ability of NMN to induce mitochondrially-encoded genes ([1]; SIRT1 KO mice vs WT, NMN or PBS, gastrocnemius)	ATP levels ([2]; 6- and 22-month-old mice, NMN one week, gastrocnemius)	ATP levels in skeletal muscle [2, 4]	ability of NMN to improve mitochondrial function (membrane potential) ([2]; SIRT1 KO mice vs WT, NMN or PBS, skeletal muscle mitochondria)	COX activity ([2]; old mice, NMN one week, gastrocnemius (FIG. 24H))	mitochondrial membrane potential ([2]; treated 24-month-old mice, NMN 500 mg/kg IP one week, isolated skeletal muscle mitochondria)	ATP levels [2, 5]	COX activity [2, 5]	HIF-1α protein in muscle (HIF-1α; 3- and 24-month-old mice, NMN 500 mg/kg IP one week)	HIF-1α protein accumulation (HIF-1α; 6- and 22-month-old mice, NMN one week)
COC(=O)CNC(=O)C(=O)OC [DMOG, dimethyloxaloylglycine]	abolished the increase in the expression of mitochondrial-encoded genes	abolished	increase HIF-1α	–	–	–	–	–	–	–	–	–	–	–	–
NC(=O)c1ccc[n+]([C@@H]2O[C@H](COP(=O)([O-])O)[C@@H](O)[C@H]2O)c1 [NMN, nicotinamide mononucleotide]	–	–	–	restored	did not restore mitochondrial-encoded genes	lost in animals lacking SIRT1	increase in ATP levels	did not restore	lost in animals lacking SIRT1	increase	restoration of mitochondrial membrane potential to the levels of the young mice	increases in ATP levels	increases	reversed the age-induced increase in HIF-1α in muscle	reversed; also recorded: reduced the level of HIF-1α in muscle
